Measured values as given in patent US20170369444A1, “INHIBITORS OF HISTONE DEMETHYLASES” (Gilead Sciences, Inc., priority 2014, published 2017).

What was measured:
Type in all cases: biochemical
PHF8 (KDM7) = PHF8 (KDM7) (Homo sapiens, UniProt Q9UPP1); assay: Histone lysine demethylase AlphaLISA assay, PHF8; settings: in vitro enzyme, read-out: PHF8 IC50 (HDME Inhibition)
Experimental: (§1) Histone lysine demethylase AlphaLISA assays are performed to determine IC50 values. […] Assays are performed analogously to the protocol described by PerkinElmer (Roy et al. PerkinElmer Technical Note: AlphaLISA #12, April 2011).
(§2) Assays are performed analogously to the protocol described by PerkinElmer (Roy et al. PerkinElmer Technical Note: AlphaLISA #12, April 2011).
(§3) Enzymes (final assay concentration 0.1-2.5 nM) are dissolved in enzyme buffer and incubated for 10 min before 5 μL is added to 5 μL 3% DMSO solutions of compounds in enzyme buffer, incubated for another 10 minutes, before 5 μL substrate solution is added and the reaction mixture is incubated at room temperature. 10 μL acceptor beads, suspended Epigenetic Buffer (Perkin Elmer AL008) from stock, are added and the suspension is incubated in the dark at room temperature, before 10 μL suspension of streptavidin donor beads (Perkin Elmer 6760002) in Epigenetic Buffer is added. After incubation at room temperature in the dark the plates are read.
(§4) Substrate solution: Substrate (final assay concentration 50-200 nM), 50 mM Hepes (pH 7.4-8.0), 0.003% Tween-20, 0.1% BS, 25 μM L-Asc, 10 μM α-KG. Enzyme Buffer: 50 mM Hepes (pH 7.4-8.0), 0.003% Tween-20, 0.1% BSA; 5 μM (NH4)2Fe(SO4)2

KDM5B (PLU-1) = biological target: T1, KDM5B (PLU-1) (Homo sapiens, UniProt Q9UGL1); assay: Histone lysine demethylase AlphaLISA assay, KDM5B; settings: in vitro enzyme, read-out: KDM5B IC50 (HDME Inhibition)
T1 construct: 1-809; host or cells: E. coli
T1 sequence (Q9UGL1 1-809): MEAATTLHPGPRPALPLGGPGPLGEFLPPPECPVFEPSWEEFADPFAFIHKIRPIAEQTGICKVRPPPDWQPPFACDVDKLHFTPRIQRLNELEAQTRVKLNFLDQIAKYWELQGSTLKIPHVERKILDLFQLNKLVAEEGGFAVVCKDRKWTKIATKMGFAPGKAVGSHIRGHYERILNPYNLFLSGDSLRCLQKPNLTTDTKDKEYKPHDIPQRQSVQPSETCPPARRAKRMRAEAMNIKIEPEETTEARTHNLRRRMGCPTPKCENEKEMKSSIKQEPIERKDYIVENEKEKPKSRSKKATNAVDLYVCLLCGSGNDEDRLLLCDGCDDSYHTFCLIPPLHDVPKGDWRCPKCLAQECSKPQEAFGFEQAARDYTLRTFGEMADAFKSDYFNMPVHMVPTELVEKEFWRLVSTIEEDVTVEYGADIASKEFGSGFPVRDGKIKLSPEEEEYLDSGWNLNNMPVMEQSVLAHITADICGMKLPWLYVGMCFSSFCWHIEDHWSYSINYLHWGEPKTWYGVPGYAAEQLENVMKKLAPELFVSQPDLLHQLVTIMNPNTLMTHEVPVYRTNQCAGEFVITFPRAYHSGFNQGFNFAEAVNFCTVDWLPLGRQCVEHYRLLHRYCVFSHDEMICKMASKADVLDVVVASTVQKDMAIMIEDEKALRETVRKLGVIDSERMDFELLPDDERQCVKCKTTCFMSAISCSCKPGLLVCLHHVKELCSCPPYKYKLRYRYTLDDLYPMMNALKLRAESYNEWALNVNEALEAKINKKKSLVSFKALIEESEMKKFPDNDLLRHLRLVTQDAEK
Experimental: as §1, §2, §3, §4

KDM6A (UTX) = biological target: T2, KDM6A (UTX) (Homo sapiens, UniProt O15550); assay: Histone lysine demethylase AlphaLISA assay, KDM6A; settings: in vitro enzyme, read-out: KDM6A IC50 (HDME Inhibition)
T2 construct: 919-1401; host or cells: E. coli
T2 sequence (O15550 919-1401): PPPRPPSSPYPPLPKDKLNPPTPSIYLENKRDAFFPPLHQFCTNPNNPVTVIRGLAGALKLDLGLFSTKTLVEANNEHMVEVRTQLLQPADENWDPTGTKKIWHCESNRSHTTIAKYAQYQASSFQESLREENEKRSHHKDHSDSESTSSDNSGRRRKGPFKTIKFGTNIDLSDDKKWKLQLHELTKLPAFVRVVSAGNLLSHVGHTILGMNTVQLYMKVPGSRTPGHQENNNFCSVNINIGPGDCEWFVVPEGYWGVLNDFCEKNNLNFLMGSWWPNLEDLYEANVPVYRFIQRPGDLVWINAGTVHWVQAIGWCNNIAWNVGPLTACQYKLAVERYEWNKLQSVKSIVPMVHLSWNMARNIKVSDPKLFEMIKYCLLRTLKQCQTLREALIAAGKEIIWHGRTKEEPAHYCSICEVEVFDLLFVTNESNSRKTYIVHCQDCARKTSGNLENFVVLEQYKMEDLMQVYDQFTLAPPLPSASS
Experimental: as §1, §2, §3, §4

KDM2B (FBXL10) = biological target: T3, KDM2B (FBXL10) (Homo sapiens, UniProt Q8NHM5); assay: Histone lysine demethylase AlphaLISA assay, KDM2B; settings: in vitro enzyme, read-out: KDM2B IC50 (HDME Inhibition)
T3 construct: 1-650; purchased BPS Bioscience, US; host or cells: Bac (baculovirus/insect cells)
T3 sequence (Q8NHM5 1-650): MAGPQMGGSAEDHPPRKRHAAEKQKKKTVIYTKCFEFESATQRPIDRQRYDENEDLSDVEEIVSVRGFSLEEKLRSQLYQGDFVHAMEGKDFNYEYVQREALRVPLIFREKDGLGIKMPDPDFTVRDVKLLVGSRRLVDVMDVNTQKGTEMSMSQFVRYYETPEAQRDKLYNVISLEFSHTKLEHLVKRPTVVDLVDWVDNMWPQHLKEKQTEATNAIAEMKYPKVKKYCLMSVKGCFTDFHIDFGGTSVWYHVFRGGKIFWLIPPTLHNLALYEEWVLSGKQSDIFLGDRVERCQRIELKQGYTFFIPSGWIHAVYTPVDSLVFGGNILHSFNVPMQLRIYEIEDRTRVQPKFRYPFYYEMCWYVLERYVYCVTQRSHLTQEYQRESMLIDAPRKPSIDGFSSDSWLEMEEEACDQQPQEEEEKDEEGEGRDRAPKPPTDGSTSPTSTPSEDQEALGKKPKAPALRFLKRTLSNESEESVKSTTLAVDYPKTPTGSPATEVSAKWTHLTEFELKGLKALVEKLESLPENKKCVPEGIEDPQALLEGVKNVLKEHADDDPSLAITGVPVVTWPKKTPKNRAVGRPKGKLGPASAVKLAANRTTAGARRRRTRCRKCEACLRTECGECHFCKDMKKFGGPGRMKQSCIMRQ
Experimental: as §1, §2, §3, §4

PHF8 (KDM7), sequence (Q9UPP1 whole entry): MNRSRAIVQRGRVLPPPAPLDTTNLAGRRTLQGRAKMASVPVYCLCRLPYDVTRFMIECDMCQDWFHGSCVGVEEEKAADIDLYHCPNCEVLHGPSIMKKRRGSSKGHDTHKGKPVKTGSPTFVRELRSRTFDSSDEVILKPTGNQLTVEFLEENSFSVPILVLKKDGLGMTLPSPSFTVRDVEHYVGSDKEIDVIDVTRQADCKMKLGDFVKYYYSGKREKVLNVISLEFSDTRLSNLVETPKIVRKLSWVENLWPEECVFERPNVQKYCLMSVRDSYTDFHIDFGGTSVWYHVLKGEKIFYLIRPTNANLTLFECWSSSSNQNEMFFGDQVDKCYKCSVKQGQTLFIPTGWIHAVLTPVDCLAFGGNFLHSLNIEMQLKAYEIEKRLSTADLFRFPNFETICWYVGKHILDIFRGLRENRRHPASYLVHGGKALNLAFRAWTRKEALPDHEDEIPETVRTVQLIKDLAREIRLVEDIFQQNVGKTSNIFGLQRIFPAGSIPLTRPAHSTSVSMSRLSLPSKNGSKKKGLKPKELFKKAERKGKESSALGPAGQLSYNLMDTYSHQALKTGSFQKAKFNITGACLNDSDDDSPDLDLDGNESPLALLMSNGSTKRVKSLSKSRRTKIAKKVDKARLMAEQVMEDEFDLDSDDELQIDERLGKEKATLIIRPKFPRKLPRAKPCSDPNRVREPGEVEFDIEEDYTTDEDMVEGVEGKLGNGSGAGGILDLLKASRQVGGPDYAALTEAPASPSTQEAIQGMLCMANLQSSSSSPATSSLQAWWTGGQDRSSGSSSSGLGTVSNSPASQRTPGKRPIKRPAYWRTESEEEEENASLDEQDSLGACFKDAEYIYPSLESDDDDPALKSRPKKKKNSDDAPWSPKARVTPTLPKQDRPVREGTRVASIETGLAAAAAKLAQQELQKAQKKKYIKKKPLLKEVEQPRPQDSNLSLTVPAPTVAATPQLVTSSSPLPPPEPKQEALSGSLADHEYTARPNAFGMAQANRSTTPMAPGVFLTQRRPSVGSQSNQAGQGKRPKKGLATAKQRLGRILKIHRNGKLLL

SMILES	IC50 (PHF8 (KDM7)) [nM]	IC50 (KDM5B (PLU-1)) [nM]	IC50 (KDM6A (UTX)) [nM]	IC50 (KDM2B (FBXL10)) [nM]
O=C(O)c1ccnc(CN2CCC[C@@H]2CO)c1 [Compound 57, 2-{[(2R)-2-(hydroxymethyl)pyrrolidin-1-yl]methyl}pyridine-4-carboxylic acid]	< 250	< 250		
C=CCN(CC=C)C(=O)[C@H](CCS(C)(=O)=O)NCc1cc(C(=O)O)ccn1 [Compound 29, 2-({[(1S)-1-[bis(prop-2-en-1-yl)carbamoyl]-3-methanesulfonylpropyl]amino}methyl)pyridine-4-carboxylic acid]	> 2500	> 2500		
C=CCN(CC=C)C(=O)[C@H](CCCCN(C)C(=O)NC)NCc1cc(C(=O)O)ccn1 [Compound 20, 2-({[(1S)-1-[bis(prop-2-en-1-yl)carbamoyl]-5-[methyl(methylcarba-moyl)amino]pentyl]amino}methyl)pyridine-4-carboxylic acid]	> 2500	250 to 2500	> 2500	
O=C(O)c1ccnc(CN2CCC[C@@H]2C(=O)N2CCCCC2)c1 [Compound 56, 2-{[(2R)-2-(piperidine-1-carbonyl)pyrrolidin-1-yl]methyl}pyridine-4-carboxylic acid]	250 to 2500	> 2500		
C=CCN(CC=C)C(=O)[C@H](CCCCNC(=O)NC(C)(C)C)NCc1cc(C(=O)O)ccn1 [Compound 9, 2-({[(1S)-1-[bis(prop-2-en-1-yl)carbamoyl]-5-[(tert-butylcarbamoyl)amino]pentyl]amino}methyl) pyridine-4-carboxylic acid]	> 2500	250 to 2500	> 2500	
CCNC(=O)C[C@@H]1CCN(Cc2cc(C(=O)O)ccn2)C1 [Compound 77, 2-{[(3S)-3-[(ethylcarbamoyl)methyl]pyrrolidin-1-yl]methyl}pyridine-4-carboxylic acid]	250 to 2500	250 to 2500	> 2500	
CCN(CC)C(=O)CCN(CCO)Cc1cc(C(=O)O)ccn1 [Compound 44, 2-({[2-(diethylcarbamoyl)ethyl](2-hydroxyethyl)amino}methyl)pyridine-4-carboxylic acid]		< 250		250 to 2500
CC[C@H]1CCN(Cc2cc(C(=O)O)ccn2)[C@@H]1CO [Compound 65, 2-{[(2S,3S)-3-ethyl-2-(hydroxymethyl)pyrrolidin-1-yl]methyl}pyridine-4-carboxylic acid]	> 2500	> 2500	> 2500	
CN(C)CC1CCN(Cc2cc(C(=O)O)ccn2)Cc2nccn21 (stereo not shown) [Compound 54, 2-({5-[(dimethylamino)methyl]-5H,6H,7H,8H,9H-imidazo[1,2-a][1,4]diazepin-8-yl}methyl)pyridine-4-carboxylic acid]		250 to 2500		> 2500
C=CCN(CC=C)C(=O)[C@H](CCCCNC(=O)OC(C)(C)C)NCc1cc(C(=O)O)ccn1 [Compound 40, 2-({[(1S)-1-[bis(prop-2-en-1-yl)carbamoyl]-5-{[(tert-butoxy)carbonyl]amino}pentyl]amino}methyl) pyridine-4-carboxylic acid]		250 to 2500		250 to 2500
C=CCN(CC=C)C(=O)[C@H](CC(=O)NCC1(CO)CC1)NCc1cc(C(=O)O)ccn1 [Compound 11, 2-({[(1S)-1-[bis(prop-2-en-1-yl)carbamoyl]-2-({[1-(hydroxymethyl)cyclo-propyl]methyl}carba-moyl)ethyl]amino}methyl)pyridine-4-carboxylic acid]		250 to 2500		250 to 2500
CCNC(=O)C1CCCN(Cc2cc(C(=O)O)ccn2)C1 (stereo not shown) [Compound 74, 2-{[3-(ethylcarbamoyl)piper-idin-1-yl]methyl}pyridine-4-carboxylic acid]	> 2500	250 to 2500	> 2500	
C=CCN(CC=C)C(=O)[C@@H](CCCCNCCC)NCc1cc(C(=O)O)ccn1 [Compound 3, 2-({[(1R)-1-[bis(prop-2-en-1-yl)carbamoyl]-5-(propylamino)pentyl]amino}methyl)pyridine-4-carboxylic acid]	250 to 2500	> 2500		
CC(N[C@@H](C)C(=O)NCc1ccccc1[N+](=O)[O-])c1cc(C(=O)O)ccn1 (stereo partly drawn) [Compound 8, 2-(1-{[(1S)-1-{[(2-nitrophenyl)methyl]carbamoyl}ethyl]amino}ethyl)pyridine-4-carboxylic acid]	> 2500	> 2500	> 2500	
CC(C)C[C@@H](COCc1ccccc1)NCc1cc(C(=O)O)ncn1 [Compound 89, 6-({[(2S)-1-(benzyloxy)-4-methylpentan-2-yl]amino}methyl) pyrimidine-4-carboxylic acid]	250 to 2500		> 2500	
O=C(O)c1ccnc(CN2CC[C@H]2CO)c1 [Compound 64, 2-{[(2S)-2-(hydroxymethyl)azetidin-1-yl]methyl}pyridine-4-carboxylic acid]	> 2500	250 to 2500	> 2500	
CCNC(=O)C1CCN(Cc2cc(C(=O)O)ccn2)C1 (stereo not shown) [Compound 76, 2-{[3-(ethylcarbamoyl)pyrrolidin-1-yl]methyl}pyridine-4-carboxylic acid]	250 to 2500	250 to 2500	> 2500	
O=C(O)c1ccnc(CNCc2cn(Cc3ccc(F)cc3)c3ncccc23)c1 [Compound 83, 2-[({[1-(4-fluorobenzyl)-1H-pyrrolo[2,3-b]pyridin-3-yl]methyl}amino)methyl]pyridine-4-carboxylic acid]	< 250	250 to 2500	> 2500	
O=C(O)c1ccnc(CN2CCC[C@H]2C(=O)N2CCCCC2)c1 [Compound 55, 2-{[(2S)-2-(piperidine-1-carbonyl)pyrrolidin-1-yl]methyl}pyridine-4-carboxylic acid]	> 2500	> 2500		
O=C(O)c1ccnc(CNCc2cccnc2)c1 [Compound 84, 2-{[(pyridin-3-ylmethyl)amino]methyl}pyridine-4-carboxylic acid]	< 250	< 250	> 2500	
O=C(O)c1ccnc(CN2CCC[C@H]2CO)c1 [Compound 58, 2-{[(2S)-2-(hydroxymethyl)pyrrolidin-1-yl]methyl}pyridine-4-carboxylic acid]	250 to 2500	< 250		
CC(N[C@H](C)c1nccs1)c1cc(C(=O)O)ccn1 (stereo partly drawn) [Compound 30, 2-(1-{[(1R)-1-(1,3-thiazol-2-yl)ethyl]amino}ethyl) pyridine-4-carboxylic acid]	250 to 2500	> 2500	> 2500	
